Experiments:
[1] = Cytotoxicity in BALB/c mouse BMDM cells after 72 hrs by Alamar Blue assay; format: cell-based; conditions: bone marrow-derived macrophages (BMDM cells), read-out: LD50
[2] = biological target: T1, Glycylpeptide N-tetradecanoyltransferase (Plasmodium falciparum (isolate 3D7), UniProt Q8ILW6); test: Binding affinity to Plasmodium falciparum N-myristoyltransferase by fluorescence analysis
T1 sequence (Q8ILW6 whole entry): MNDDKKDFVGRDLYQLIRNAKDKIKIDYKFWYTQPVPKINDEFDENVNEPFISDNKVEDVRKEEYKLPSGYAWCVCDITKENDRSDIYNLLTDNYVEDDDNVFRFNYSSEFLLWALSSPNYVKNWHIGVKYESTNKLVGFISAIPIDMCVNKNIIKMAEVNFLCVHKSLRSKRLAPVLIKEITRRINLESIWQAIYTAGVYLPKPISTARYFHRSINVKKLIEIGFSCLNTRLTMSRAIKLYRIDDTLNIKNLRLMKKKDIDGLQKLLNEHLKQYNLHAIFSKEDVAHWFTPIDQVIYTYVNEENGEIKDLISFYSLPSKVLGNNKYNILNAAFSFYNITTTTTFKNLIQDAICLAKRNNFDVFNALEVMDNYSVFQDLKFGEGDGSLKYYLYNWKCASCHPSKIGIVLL

SMILES | CC50 at 72 h [1] [µM] | Ki [2] [µM]
COc1cccc(Cc2noc(-c3ccc(F)cc3OC3CCNCC3)n2)c1 | 29.5 | 
Cc1nn(C)c(C)c1Cc1nnc(-c2cc(Cl)ccc2OC2CCNCC2)o1 | > 90 | 
COc1cccc(Cc2noc(-c3cc(Cl)ccc3OC3CCNCC3)n2)c1 | 18 | 
COc1cccc(COC(=O)c2sccc2OC2CCNCC2)c1 |  | > 100
COc1cccc(Cc2noc(-c3cc(OC)ccc3OC3CCNCC3)n2)c1 | 27.9 | 

Reference: ChEMBL document CHEMBL3769347, “Discovery of high affinity inhibitors of Leishmania donovani N-myristoyltransferase” (Medchemcomm, 2015)
